Here are results for 20 compounds from patent US8486936B2, “Antagonist of smoothened” (AllaChem, LLC, priority 2009, dated 2013).

A value given as a limit tells only on which side of the number the result lay.

This experiment deals with Hh-signalling cascade. Put plainly: Inhibition of SHh-stimulated alkaline phosphatase in C3H10T1/2 cells (Hh-signalling cascade IC50). It is filed as cell-based. As to conditions: Mus musculus, C3H 10T1/2, 384-well plates, triplicates, SHh protein stimulation, read-out: Activity (IC50, half maximal inhibition of stimulation of cell alkaline phosphatase by SHh). How it is done:
Version 1—manual setup, 96-well plates, dose-response, C3H/10T1/2 cells. Aim: to determine activity of Sonic Hedgehog pathway inhibitors.
• C3H/10T1/2 cells, grown in DMEM medium/10% FBS to 60-80% confluent • Assay Plates: 96-well half-area tissue culture plates Corning cat. #3697 • Tested compounds as 10 mM DMSO solutions in 96-tube racks • Recombinant Human Sonic Hedgehog (C2411) protein, RDS product #1845-SH, reconstituted at 200 μg/ml in PBS. • Lysis Buffer: 10 mM Ethanolamine Buffer (pH 8.0), 0.2% Triton-X100, supplemented 1:100 with Protease Inhibitor Cocktail (EMD Bioscience product #539134). • CSPD Alkaline Phosphatase Substrate with Emerald-II (Applied Biosystems product #T2212). • Prepare 1 Assay plate for every 4 compounds (see FIG. 1): • 1. Harvest C3H/10T1/2 cells with TrypLE Express solution according to a regular cell subculture protocol • 2. Count the cells and calculate dilution necessary to obtain cell suspension at 5×10^3 cells per 40 μl ([…]) • 3. Dilute cells with DMEM/10% FBS and distribute at 40 μl/well • 4. Place the plate(s) into the incubator and allow cells to attach for 3-5 hours • Prepare dilution plate: • 1. Designate 1 column for each compound • 2. Add 99 μl of DMEM/10% FBS to the wells in row A and 50 μl to the wells in rows B-H • 3. Add 1 μl of compound DMSO stocks to the wells in row A, mix, change the tip. • 4. Transfer […] of compound solutions in row A to the wells in row B, mix, change the tip • 5. […] Row G is a “no compound” positive control; row H is a “no Hedgehog” negative control • Add 5 μl/well of 10× compound dilutions from dilution plate to the corresponding wells in assay plates (see assay plate layout). Use 125 μl automatic repeating pipettor. • Place plates into incubator for 20-30 min. • Prepare 3 μg/ml 10× solution of Sonic Hedgehog (C24II) protein (Hh) in DMEM/10% FBS: • 1. Calculate total volume needed as 500 μl per full plate or 125 μl per each compound tested • 2. Add 1.5 μl of Hh stock solution (200 μg/ml in PBS) per each 98.5 μl of medium • Add 5 μl/well of 10× Hh solution to the wells in rows A-G, add 5 μl/well of medium to the wells in row H (see assay plate layout). Use 125 μl automatic repeating pipettor. • Place plates into incubator for 3 days. • Wash cells on plate: aspirate medium, add 100 μl/well of PBS or HBSS and aspirate again. • Add 20 μl/well of lysis buffer and incubate for 15 min. at room temperature on a shaker platform. • Transfer 7.5 μl/well of cell lysate into white opaque plates and add 45 μl/well of CSPD Alkaline Phosphatase substrate. • Cover from light and incubate for 45 min. at room temperature on a shaker platform. • Read the plate(s) on Wallac VictorV reader using Luminescence (0.1 s) protocol.
Cells C3H10T1/2 were used for identification of inhibitors of SHh-protein signaling cascade. SHh-protein activates cells C3H10T1/2, that leads to their osteogenic differentiation [1) Kinto N., Iwamoto M., Enomoto-Iwamoto M., Noji S., Ohuchi H., Yoshioka H., Kataoka H., Wada Y., Yuhao G., Takahashi H. E., Yoshiki S., Yamaguchi A. Fibroblasts expressing Sonic hedgehog induce osteoblast differentiation and ectopic bone formation. FEBS Lett. 1997; 404 (2-3): 319-23. 2) Spinella-Jaegle S., Rawadi G., Kawai S., Gallea S., Faucheu C., Mollat P., Courtois B., Bergaud B., Ramez V., Blanchet A. M., Adelmant G., Baron R., Roman-Roman S. Sonic hedgehog increases the commitment of pluripotent mesenchymal cells into the osteoblastic lineage and abolishes adipocytic differentiation. J. Cell Sci. 2001; 114 (Pt 11): 2085-94] and, in particular, to expression enhancement of alkaline phosphatase enzyme.
The cells were cultivated in DMEM medium with 10% embryonal calfish serum in incubator at 37° C., 100% humidity and 5% CO2 content. The cells were placed in 384-well plates and left for a night. […]
As a reminder, the IC50 is the concentration that inhibits the measured activity by half. Regarding `COc1ccc(C(=O)Nc2ccc(-c3cn4cccc(C)c4n3)cc2)c(Br)c1` [Cpd-001], the IC50 is less than 500 nM.
The figure for `Cc1cccn2cc(-c3ccc(NC(=O)c4ccc(S(C)(=O)=O)cc4Cl)cc3)nc12` [Cpd-002] is less than 500 nM; for `Cc1cccn2cc(-c3ccc(NC(=O)c4ccc(S(C)(=O)=O)cc4Br)cc3)nc12` [Cpd-003] it is less than 500 nM; for `COc1ccc(C(=O)Nc2ccc(-c3cn4cccc(C)c4n3)cc2)c(Oc2ccncc2)c1` [Cpd-004] it is 500 to 5000 nM.
`COc1ccc(C(=O)Nc2ccc(-c3cn4cccc(C)c4n3)cc2)c(Cl)c1` [Cpd-005]: the IC50 is less than 500 nM.
The figure for `Cc1cccn2cc(-c3ccc(NC(=O)c4ccccc4F)cc3)nc12` [Cpd-006] is 500 to 5000 nM; for `Cc1cccn2cc(-c3ccc(NC(=O)c4ccc(F)cc4F)cc3)nc12` [Cpd-007] it is 5000 to 50000 nM; for `CCc1cccn2cc(-c3ccc(NC(=O)c4ccc(F)cc4F)cc3)nc12` [Cpd-008] it is 500 to 5000 nM.
For `Cc1cccn2cc(-c3ccc(NC(=O)c4ccc(Cl)cc4Cl)cc3)nc12` [Cpd-009], the IC50 was 5000 to 50000 nM.
With `CCOc1ccc(C(=O)Nc2ccc(-c3cn4cccc(C)c4n3)cc2)c(Cl)c1` [Cpd-010], the IC50 was less than 500 nM.
In the case of `COc1ccc(C(=O)Nc2ccc(-c3cn4cccc(C)c4n3)cc2)c(F)c1` [Cpd-011], the IC50 is less than 500 nM.
As to `Cc1cccn2cc(-c3ccc(NC(=O)c4ccc5c(c4)OCO5)cc3)nc12` [Cpd-012], the IC50 lay in the range of 500 to 5000 nM.
The figure for `COc1ccc(C(=O)Nc2ccc(-c3cn4cccc(C)c4n3)cc2)cc1OC` [Cpd-013] is less than 500 nM.
The figure for `Cc1cccn2cc(-c3ccc(NC(=O)c4ccc(C(C)C)cc4)cc3)nc12` [Cpd-014] is 5000 to 50000 nM; for `Cc1cccn2cc(-c3ccc(NC(=O)c4ccc(C(C)(C)C)cc4)cc3)nc12` [Cpd-015] it is 500 to 5000 nM; for `Cc1cccn2cc(-c3ccc(NC(=O)c4ccc(C(F)(F)F)cc4)cc3)nc12` [Cpd-016] it is greater than 50000 nM.
Consider `Cc1cccn2cc(-c3ccc(NC(=O)c4ccc(-c5ccccc5)cc4)cc3)nc12` [Cpd-017], for which the IC50 fell in the range of 5000 to 50000 nM.
On to `Cc1cccc(C)c1C(=O)Nc1ccc(-c2cn3cccc(C)c3n2)cc1` [Cpd-018], for which the IC50 was less than 500 nM.
The figure for `CCOc1ccc(C(=O)Nc2ccc(-c3cn4cccc(C)c4n3)cc2)c(Br)c1` [Cpd-019] is 500 to 5000 nM; for `Cc1cc(S(C)(=O)=O)ccc1C(=O)Nc1ccc(-c2cn3cccc(C)c3n2)cc1` [Cpd-020] it is less than 500 nM.
